Test results from patent publication US9708359B2, “Pyrrolopyrimidine nucleosides and analogs thereof” (Chimerix, Inc., priority 2015, dated 2017).
“And” between values parts separate entries of the source, which are not always exact repeats. Equal values may be shown once.

What follows are compounds tested on mouse norovirus (assay: Mouse Norovirus (MNV) assay in RAW cells). Conditions: murine norovirus, Table 7.
For `Cc1nc(N)c2c(C(N)=O)cn([C@@H]3O[C@H](COP(=O)(O)O)[C@@H](O)[C@H]3O)c2n1` [Compound 71], the EC50 was 3.15 µM.
Compound `Cc1nc(N)c2c(C(N)=O)cn([C@@H]3O[C@H](COC(=O)[C@H](CC(C)C)NC(=O)OCC4c5ccccc5-c5ccccc54)[C@@H](O)[C@H]3O)c2n1` [Compound 76] has an EC50 of 16.4 µM.
Work on `Cc1nc(N)c2c(C(N)=O)cn([C@@H]3O[C@H](COC(=O)[C@@H](N)CC(C)C)[C@@H](O)[C@H]3O)c2n1` [Compound 77] yielded an EC50 of 4.4 µM.
Compound `Cc1nc(N)c2c(C(N)=O)cn([C@@H]3O[C@H](COP(=O)(N[C@@H](C)C(=O)OCc4ccccc4)Oc4ccccc4)[C@@H](O)[C@H]3O)c2n1` (stereo partly drawn) [Compound 107] has an EC50 of 18.1 µM.
In the case of `COC(=O)[C@H](C)NP(=O)(OC[C@H]1O[C@@H](n2cc(C(N)=O)c3c(N)nc(C)nc32)[C@H](O)[C@@H]1O)Oc1ccccc1` (stereo partly drawn) [Compound 111], the EC50 is reported as 21 µM.
`Cc1nc(N)c2c(C(N)=O)cn([C@@H]3O[C@H](COP(=O)(N[C@@H](C)C(=O)OCc4ccccc4)N[C@H](C)C(=O)OCc4ccccc4)[C@@H](O)[C@H]3O)c2n1` [Compound 126] was tested, and the EC50 was 33.6 µM and 38.9 µM.
For `Cc1nc(N)c2c(C(N)=O)cn([C@@H]3O[C@H](COP(=O)(N[C@@H](C)C(=O)OC(C)C)Oc4ccccc4)[C@@H](OC(=O)C(C)C)[C@H]3OC(=O)C(C)C)c2n1` (stereo partly drawn) [Compound 133], the EC50 was 25.7 µM.
Work on `Cc1nc(N)c2c(C(N)=O)cn([C@@H]3O[C@H](COP(=O)(N[C@@H](C)C(=O)OC(C)C)OCc4ccccc4C)[C@@H](O)[C@H]3O)c2n1` (stereo partly drawn) [Compound 137] yielded an EC50 of 20 µM.
With `CCCCCCCCCCCCCCCCOCCCOC(=O)[C@H](C)NP(=O)(OC[C@H]1O[C@@H](n2cc(C(N)=O)c3c(N)nc(C)nc32)[C@H](O)[C@@H]1O)Oc1ccccc1` (stereo partly drawn) [Compound 139] the EC50 was 2.3 µM.

Same assay, conditions: murine norovirus, Table 8; N/A = assayed but no EC50 value could be measured
With `Cc1nc(N)c2c(C(N)=O)cn(C3(C)O[C@H](COC(=O)[C@@H](N)C(C)C)[C@@H](O)[C@H]3O)c2n1` (stereo partly drawn) [Compound 62] the EC50 was over 100 µM.
`Cc1nc(N)c2c(C(N)=O)cn([C@@H]3O[C@H](COC(=O)[C@@H](NC(=O)OCC4C5C=CC=CC5C5C=CC=CC54)C(C)C)[C@@H](O)[C@H]3O)c2n1` (stereo partly drawn) [Compound 63] was tested, and the EC50 was over 100 µM.
With `CCOP(=O)(COC(CO)Cn1cc(C(N)=O)c2c(N)nc(C)nc21)OCC` (stereo not drawn) [Compound 64] the EC50 was over 100 µM.
`COc1ccc2cc([C@@H](C)C(=O)OC[C@H]3O[C@@H](n4cc(C(N)=O)c5c(N)nc(C)nc54)[C@@H]4OC(C)(C)O[C@@H]43)ccc2c1` [Compound 65] showed an EC50 of over 100 µM.
Compound `CCOP(=O)(COC[C@@H]1C=C[C@H](n2cc(C(N)=O)c3c(N)nc(C)nc32)O1)OCC` [Compound 67] has an EC50 of over 100 µM.
For `CCOP(=O)(CO[C@H]1O[C@@H](n2cc(C#N)c3c(N)nc(C)nc32)[C@H](O)[C@@H]1O)OCC` [Compound 68], the EC50 was over 100 µM.
In the case of `Cc1nc(N)c2c(C(N)=O)cn([C@@H]3O[C@H](OCP(=O)(O)O)[C@@H](O)[C@H]3O)c2n1` [Compound 70], the EC50 is reported as over 100 µM.
With `CCOP(=O)(CO[C@H]1O[C@@H](n2cc(C(N)=O)c3c(N)nc(C)nc32)[C@H](O)[C@@H]1O)OCC` [Compound 73] the EC50 was over 100 µM.
Work on `CCOP(=O)(C[C@H]1O[C@@H](n2cc(C(N)=O)c3c(N)nc(C)nc32)[C@H](O)[C@@H]1O)OCC` [Compound 74] yielded an EC50 of over 100 µM.
`Cc1nc(N)c2c(C(N)=O)cn([C@@H]3O[C@H](CP(=O)(O)O)[C@@H](O)[C@H]3O)c2n1` [Compound 75] was tested, and the EC50 was over 100 µM.
`Cc1nc(N)c2c(C(N)=O)cn([C@@H]3O[C@@H]4OCP(=O)(O)O[C@H]4[C@H]3O)c2n1` [Compound 78] gave an EC50 of over 100 µM.
Work on `CCCCCCCCCCCCCCCCOCCCOP(=O)(O)OC[C@H]1O[C@@H](n2cc(C(N)=O)c3c(N)nc(C)nc32)[C@H](O)[C@@H]1O` [Compound 79] yielded an EC50 of over 100 µM.
`Cc1nc(N)c2ccn([C@@H]3O[C@H](COCc4ccccc4)[C@@H](O)[C@H]3O)c2n1` [Compound 82] gave an EC50 of over 100 µM.
For `NC(=O)c1cn([C@@H]2O[C@H](CO)[C@@H](O)[C@H]2O)c2nc(N)nc(N)c12` [Compound 83], the EC50 was over 100 µM.
With `Cc1nc(N)c2c(S(=O)(=O)O)cn([C@@H]3O[C@H](CO)[C@@H](O)[C@H]3O)c2n1` [Compound 84] the EC50 was over 100 µM.
For `Cc1nc(N)c2c(C(=N)NO)cn([C@@H]3O[C@H](CO)[C@@H](O)[C@H]3O)c2n1` [Compound 85], the EC50 was over 100 µM.
`COC(=O)C(OC[C@H]1O[C@@H](n2cc(C#N)c3c(N)nc(C)nc32)[C@H](O)[C@@H]1O)P(=O)(OC)OC` (stereo partly drawn) [Compound 86] gave an EC50 of over 100 µM.
With `Cc1nc(N)c2c(C(N)=O)cn([C@@H]3O[C@H](CO)[C@@H](O)[C@@]3(C)O)c2n1` [Compound 87] the EC50 was over 100 µM.
Compound `N#Cc1nc(N)c2c(C(N)=O)cn([C@@H]3O[C@H](CO)[C@@H](O)[C@H]3O)c2n1` [Compound 89] has an EC50 of over 100 µM.
Work on `CC#Cc1nc(N)c2c(C(N)=O)cn([C@@H]3O[C@H](CO)[C@@H](O)[C@H]3O)c2n1` [Compound 90] yielded an EC50 of over 100 µM.
`Cc1nc(N)c2c(C(=N)N)cn([C@@H]3O[C@H](CO)[C@@H](O)[C@H]3O)c2n1` [Compound 91] showed an EC50 of over 100 µM.
In the case of `Cc1nc(N)c2c(C(N)=O)cn([C@H]3C[C@H](O)[C@@H](CO)O3)c2n1` [Compound 92], the EC50 is reported as over 100 µM.
For `Cc1nc(N)c2c(C(N)=O)cn([C@@H]3O[C@H](COC(=O)[C@@H](N)C(C)C)[C@@H](OC(=O)C(N)C(C)C)[C@@]3(C)O)c2n1` (stereo partly drawn) [Compound 93], the EC50 was over 100 µM.
`Cc1nc(NO)c2c(C(N)=O)cn([C@@H]3O[C@H](CO)[C@@H](O)[C@H]3O)c2n1` [Compound 94] was tested, and the EC50 was over 100 µM.
With `Cc1nc(NN)c2c(C(N)=O)cn([C@@H]3O[C@H](CO)[C@@H](O)[C@H]3O)c2n1` [Compound 95] the EC50 was over 100 µM.
With `Cc1nc(N)c2c(C(N)=O)cn([C@@H]3O[C@H](C)[C@@H](O)[C@H]3O)c2n1` [Compound 97] the EC50 was over 100 µM.
`Cc1nc(Cl)c2ccn(C[C@H](O)CO)c2n1` [Compound 98] showed an EC50 of over 100 µM.
In the case of `NC(=O)c1cn([C@@H]2O[C@H](CO)[C@@H](O)[C@H]2O)c2nc(CO)nc(N)c12` [Compound 99], the EC50 is reported as over 100 µM.
`COC(=N)c1cn([C@@H]2O[C@@](CO)(N=[N+]=[N-])[C@@H](O)[C@H]2O)c2nc(C)nc(N)c12` [Compound 100] gave an EC50 of over 100 µM.
`Cc1nc(N)c2c(C(N)=O)cn([C@@H]3O[C@H](CO)[C@@H](F)[C@H]3O)c2n1` [Compound 101] showed an EC50 of over 100 µM.
For `Cc1nc(N)c2c(C(N)=O)cn([C@@H]3O[C@H](C(C)O)[C@@H](O)[C@H]3O)c2n1` (stereo partly drawn) [Compound 102], the EC50 was over 100 µM.
`COC(=N)c1cn([C@@H]2O[C@H](COS(=O)(=O)CCCCl)[C@H]3OC(C)(C)O[C@H]32)c2nc(C)nc(N)c12` [Compound 103] showed an EC50 of over 100 µM.
With `COC(=N)c1cn([C@@H]2O[C@H](CN=[N+]=[N-])[C@@H](O)[C@H]2O)c2nc(C)nc(N)c12` [Compound 104] the EC50 was over 100 µM.
Compound `Cc1nc(N)c2c(C(N)=O)cn([C@@H]3O[C@@](CO)(N=[N+]=[N-])[C@@H](O)[C@H]3O)c2n1` [Compound 105] has an EC50 of over 100 µM.
In the case of `Cc1nc(N)c2c(C#N)cn([C@@H]3O[C@@](CO)(N=[N+]=[N-])[C@@H](O)[C@H]3O)c2n1` [Compound 106], the EC50 is reported as over 100 µM.
Work on `Cc1nc(N)c2c(C(N)=O)cn([C@@H]3O[C@H](CN)[C@@H](O)[C@H]3O)c2n1` [Compound 108] yielded an EC50 of over 100 µM.
`Cc1nc(N)c2c(C(N)=O)cn([C@@H]3O[C@@H](CO)[C@@H](O)[C@H]3O)c2n1` [Compound 109] showed an EC50 of over 100 µM.
For `Cc1nc(N)c2c(C(N)=O)cn([C@H]3CCCO3)c2n1` [Compound 110], the EC50 was over 100 µM.
Compound `Cc1nc(N)c2c(C(N)=O)cn([C@@H]3O[C@H](CO)[C@@H](N=[N+]=[N-])[C@H]3O)c2n1` [Compound 112] has an EC50 of over 100 µM.
`Cc1nc(N)c2c(C(N)=O)cn([C@@H]3O[C@H](CO)[C@@H](N)[C@H]3O)c2n1` [Compound 113] was tested, and the EC50 was over 100 µM.
`Cc1nc(N)c2c(C#N)cn([C@H]3C=C[C@@H](O)O3)c2n1` [Compound 114] gave an EC50 of over 100 µM.
For `CCOP(=O)(CO[C@@H]1C=C[C@H](n2cc(C#N)c3c(Cl)nc(C)nc32)O1)OCC` [Compound 116], the EC50 was over 100 µM.
`Cc1nc(Cl)c2c(C#N)cn([C@@H]3O[C@H](O)[C@@H](O)[C@H]3O)c2n1` [Compound 117] was tested, and the EC50 was over 100 µM.
For `Cc1nc(N)c2c(C(N)=O)cn([C@@H]3O[C@H](O)[C@@H](O)[C@H]3O)c2n1` [Compound 118], the EC50 was over 100 µM.
For `CCOP(=O)(CC[C@H]1O[C@@H](n2cc(C(N)=O)c3c(N)nc(C)nc32)[C@H](O)[C@@H]1O)OCC` [Compound 119], the EC50 was over 100 µM.
`Cc1nc(Cl)c2ccn([C@H]3CC=CO3)c2n1` [Compound 120] showed an EC50 of over 100 µM.
With `CCOP(=O)(CCO[C@H]1O[C@@H](n2cc(C#N)c3c(Cl)nc(C)nc32)[C@H](O)[C@@H]1O)OCC` [Compound 123] the EC50 was over 100 µM.
`Cc1nc(N)c2c(C(N)=O)cn([C@H]3C=C[C@@H](O)O3)c2n1` [Compound 124] was tested, and the EC50 was over 100 µM.
Compound `Cc1nc(N)c2c(C(N)=O)cn([C@@H]3O[C@H](OCCP(=O)(O)O)[C@@H](O)[C@H]3O)c2n1` [Compound 125] has an EC50 of over 100 µM.
`Cc1nc(/N=C/N(C)C)c2c(C(N)=O)cn([C@@H]3O[C@H](CO)[C@@H](O)[C@H]3O)c2n1` [Compound 127] showed an EC50 of 5.5 µM.
With `CC(=O)Nc1nc(C)nc2c1c(C(N)=O)cn2[C@@H]1O[C@H](COC(C)=O)[C@@H](OC(C)=O)[C@H]1OC(C)=O` [Compound 128] the EC50 was over 100 µM.
With `CC(=O)OC[C@H]1O[C@@H](n2cc(C(N)=O)c3c(N)nc(C)nc32)[C@H](OC(C)=O)[C@@H]1OC(C)=O` [Compound 129] the EC50 was 88.7 µM.
Work on `CCCCCCCCCCCCCCCCOCCCC(=O)Nc1nc(C)nc2c1c(C(N)=O)cn2[C@@H]1O[C@H](CO)[C@@H](O)[C@H]1O` [Compound 130] yielded an EC50 of 42.7 µM.
Compound `CCCC(CCC)C(=O)Nc1nc(C)nc2c1c(C(N)=O)cn2[C@@H]1O[C@H](CO)[C@@H](O)[C@H]1O` [Compound 131] has an EC50 of over 100 µM.
`Cc1nc(N)c2c(C(N)=O)cn([C@@H]3O[C@H](COP(=O)(N[C@@H](C)C(=O)OC(C)C)Oc4ccccc4)[C@@H](O)[C@H]3O)c2n1` (stereo partly drawn) [Compound 132] showed an EC50 of over 100 µM.
In the case of `Cc1nc(N)c2c(C(N)=O)cn([C@@H]3O[C@H](COP(=O)(N[C@@H](C)C(=O)OC(C)C)Oc4ccccc4)[C@H]4OC(=O)O[C@H]43)c2n1` (stereo partly drawn) [Compound 134], the EC50 is reported as 68.4 µM.
`Cc1nc(N)c2c(C(N)=O)cn([C@@H]3O[C@H](COP(=O)(NCc4ccccc4)NCc4ccccc4)[C@@H](O)[C@H]3O)c2n1` [Compound 136] was tested, and the EC50 was 64.5 µM.
